#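 A five-concentration, 48-hour dose response in 96-well plates underlies each endpoint, interpolated linearly between surrounding concentrations. The concentration for 50% growth inhibition is given as GI50.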 Active and inactive are the calls of the source. Rule as the data show it: active = GI50 up to about 1.1 µM and inactive = higher.
# Columns and labels:
# Test in all cases: NCI tumour cell line growth inhibition, 48 h
# 786-0 = test system: 786-0
# LXFL 529 = test system: LXFL 529
# SF-268 = test system: SF-268
# NCI-H460 = test system: NCI-H460
# HOP-62 = test system: HOP-62
# SR = test system: SR
# CCRF-CEM = test system: CCRF-CEM
# M19-MEL = test system: M19-MEL
# HCC 2998 = test system: HCC 2998
# K562 = test system: K562
# SNB-19 = test system: SNB-19
# MOLT-4 = test system: MOLT-4
# HT-29 = test system: HT-29
# SK-MEL-2 = test system: SK-MEL-2
# OVCAR-4 = test system: OVCAR-4
# HOP-18 = test system: HOP-18
# LOX IMVI = test system: LOX IMVI
# SF-539 = test system: SF-539
# IGROV-1 = test system: IGROV-1
# SNB-78 = test system: SNB-78
# NCI-H226 = test system: NCI-H226
# UACC-257 = test system: UACC-257
# Malme-3M = test system: Malme-3M
# EKVX = test system: EKVX
# DMS-273 = test system: DMS-273
# OVCAR-3 = test system: OVCAR-3
# KM12 = test system: KM12
# SK-OV-3 = test system: SK-OV-3
# HOP-92 = test system: HOP-92
# SK-MEL-5 = test system: SK-MEL-5
# COLO 205 = test system: COLO 205
# HL-60 = test system: HL-60
# NCI-H522 = test system: NCI-H522
# UACC-62 = test system: UACC-62
# UO-31 = test system: UO-31
# A498 = test system: A498
# HCT-15 = test system: HCT-15
# OVCAR-5 = test system: OVCAR-5
# U-251 = test system: U-251
# TK-10 = test system: TK-10
# A549 = test system: A549
# OVCAR-8 = test system: OVCAR-8
# RXF 631 = test system: RXF 631
# M14 = test system: M14
# SNB-75 = test system: SNB-75
# RPMI-8226 = test system: RPMI-8226
# SK-MEL-28 = test system: SK-MEL-28
# NCI-H23 = test system: NCI-H23
# XF498 = test system: XF498
# DLD-1 = test system: DLD-1
# DMS-114 = test system: DMS-114
# SW-620 = test system: SW-620
# SF-295 = test system: SF-295
# HCT-116 = test system: HCT-116
smiles,measurement,setting,value
CC1CC(=O)c2c(ccc3c2C(=O)c2cccc(O)c2C3=O)C1 (centres undefined),GI50,786-0,7 µM (inactive)
same,GI50,LXFL 529,4.31 µM (inactive)
same,GI50,SF-268,10.4 µM (inactive)
same,GI50,NCI-H460,4.62 µM (inactive)
same,GI50,HOP-62,> 10 µM (inactive)
same,GI50,SR,3.54 µM (inactive)
same,GI50,CCRF-CEM,1.95 µM (inactive)
same,GI50,M19-MEL,1.41 µM (inactive)
same,GI50,HCC 2998,10.4 µM (inactive)
same,GI50,K562,2.77 µM (inactive)
same,GI50,SNB-19,12.2 µM (inactive)
same,GI50,MOLT-4,2.13 µM (inactive)
same,GI50,HT-29,3.74 µM (inactive)
same,GI50,SK-MEL-2,8.81 µM (inactive)
same,GI50,OVCAR-4,12.4 µM (inactive)
same,GI50,HOP-18,6.58 µM (inactive)
same,GI50,LOX IMVI,4.47 µM (inactive)
same,GI50,SF-539,14.8 µM (inactive)
same,GI50,IGROV-1,> 10 µM (inactive)
same,GI50,SNB-78,7.29 µM (inactive)
same,GI50,NCI-H226,14.4 µM (inactive)
same,GI50,UACC-257,5.89 µM (inactive)
same,GI50,Malme-3M,6.93 µM (inactive)
same,GI50,EKVX,14.6 µM (inactive)
same,GI50,DMS-273,4.48 µM (inactive)
same,GI50,OVCAR-3,3.46 µM (inactive)
same,GI50,KM12,12.7 µM (inactive)
same,GI50,SK-OV-3,19.3 µM (inactive)
same,GI50,HOP-92,1.79 µM (inactive)
same,GI50,SK-MEL-5,2.31 µM (inactive)
same,GI50,COLO 205,5.75 µM (inactive)
same,GI50,HL-60,2.77 µM (inactive)
same,GI50,NCI-H522,4.37 µM (inactive)
same,GI50,UACC-62,8.53 µM (inactive)
same,GI50,UO-31,11.5 µM (inactive)
same,GI50,A498,14 µM (inactive)
same,GI50,HCT-15,9.14 µM
same,GI50,OVCAR-5,20.6 µM (inactive)
same,GI50,U-251,11.4 µM (inactive)
same,GI50,TK-10,> 10 µM (inactive)
same,GI50,A549,7.16 µM (inactive)
same,GI50,OVCAR-8,2.56 µM (inactive)
same,GI50,RXF 631,13.2 µM (inactive)
same,GI50,M14,1.97 µM (inactive)
same,GI50,SNB-75,10.4 µM (inactive)
same,GI50,RPMI-8226,3.34 µM (inactive)
same,GI50,SK-MEL-28,13.1 µM (inactive)
same,GI50,NCI-H23,5.26 µM (inactive)
same,GI50,XF498,12.6 µM (inactive)
same,GI50,DLD-1,2.94 µM (inactive)
same,GI50,DMS-114,6.38 µM (inactive)
same,GI50,SW-620,4.25 µM (inactive)
same,GI50,SF-295,10.9 µM (inactive)
same,GI50,HCT-116,5.08 µM (inactive)
